Reference: patent US20110045076A1, “LINEAR ORDER RELEASE POLYMER” (priority 2008, published 2011)

Tests used:
Assay type in all cases: physicochemical
[1] = In vitro release of dapivirine from PU rods into liposome dispersions; conditions: 5 mg/g PU rods
Method: It is believed that vaginally delivered lipophilic NNRTI's partition into the lipid bilayer of vaginal epithelial cells.^14,21 Therefore, additional release studies were performed using 100 nm liposome dispersions in pH 4.2 and pH 7.6 buffers as biorelevant sink conditions for 1 week. These pH conditions cover the pH range observed vaginally. Liposome dispersions were synthesized by dissolving egg PC in CHCl3 followed by solvent removal under vacuum. The dried egg PC cake was dispersed in either pH 4.2 (25 mM acetate buffer containing 0.02% sodium azide and osmolarity adjusted to 310 mOsm/kg with NaCl) or pH 7.6 (25 mM phosphate buffer containing 0.02% sodium azide and osmolarity adjusted to 310 mOsm/kg with NaCl) followed by extrusion through a 100 nm membrane (LiposoFast™, Avestin, Ottawa, Canada). The concentration of liposome was 10 mg/mL. Prior to conducting the release study, liposome dispersions were characterized for particle size and zeta potential in a Zetasizer (nano ZS90, Malvern Instruments, Malvern Worcestershire, UK). A third sink condition for comparison was 25:75 v/v i-prOH:water. Approximately 0.5 mm length segments of dapivirine loaded (5 mg/g) PU rods were incubated with 0.5 mL of sink solution in 37° C. water bath shaking at 64±2 rpm. Controls used were dapivirine loaded PU rods suspended with pH 4.2 and pH 7.6 buffers without liposomes and blank PU (no dapivirine) segments in liposome dispersions in pH 4.2 and pH 7.6 buffers. Sinks were replaced and quantified for dapivirine content at frequent time points. HPLC quantification of release in sink samples of liposome dispersions was performed after 1:1 dilution with i-prOH to disrupt the dispersion.

[2] = Stability of dapivirine under extrusion conditions (heating with LC/MS and NMR, DSC, extraction)
Method: A series of experiments were conducted to confirm that dapivirine was stable in PU matrix in the extrusion process. First, the thermal stability of dapivirine at the extrusion temperature was examined and analyzed for its non-degradability as follows: dapivirine was heated at 185° C. isothermally for 2 h under air atmosphere and ^1H and ^13C NMR spectra were recorded (Mercury 400 MHz spectrometer, Varian) for the heated and unheated dapivirine. Furthermore, LC/MS analysis was performed on the heated sample and compared to non-heated controls. The MS instrumentation consisted of Micromass Quattro II Triple Quadruple Mass Spectrometer, Waters, Milford, Mass.
Second, a differential scanning calorimetric (DSC) scan was obtained on dapivirine from 25° C. to 230° C. at a heating rate of 10° C./min under air atmosphere with a flow rate of 40 mL/min (Model DSC821e, Mettler Toledo, Columbus, Ohio). To further confirm the stability of dapivirine in the presence of PU under extrusion conditions, DSC analyses were carried out for PU, dapivirine, and PU films loaded with dapivirine at a concentration of 200 mg/g. The high concentration of dapivirine was selected to enable detection of potential exothermic degradation peaks. The DSC spectrum was collected from 25° C. to 230° C. at the heating rate of 10° C./min as well as at an isothermal condition (175° C. for 10 minutes).
Finally, dapivirine was extracted and quantified from extruded rods and PU pellets (both SC and MM) prior to extrusion. The test samples (100 mg of ring segments or pellets) were dissolved in 2 mL of chloroform in a 50 mL centrifuge tube in triplicate followed by precipitation of the PU by addition of 25 mL of methanol using a volumetric flask. The polymer was separated by centrifugation (1600 RCF, 5 min) and the supernatant was quantified for dapivirine content by HPLC. The caps of the centrifuge tubes were closed tightly and wrapped with Teflon tape during the process to minimize evaporation. The efficiency of the extraction of dapivirine from the PU matrix using this method was determined by quantifying the extracted dapivirine content from controls of blank PU pellets (100 mg) to which known amount of dapivirine was added. The three controls used in triplicate were 1) 100 mg of PU pellets with 2 mg of dapivirine 2) 100 mg of PU pellets with 1 mg of dapivirine and 3) 100 mg of PU pellets with 0.25 mg of dapivirine. The mixtures of PU pellets and dapivirine were then subjected to the same precipitation process and dapivirine quantification as above. A linear calibration curve generated from standards of dapivirine in isopropanol (i-prOH) was utilized for quantification of dapivirine content from extracted samples.

[3] = In vitro release of dapivirine from PU-SC rods in 25:75 i-prOH:water
Method: The release profile of dapivirine was measured from PU-SC rods for a month after which the release kinetics from rings was evaluated for two weeks to determine the correlation of drug release rate from rods to that from rings. This may enable use of rods in place of rings for release kinetics evaluation thereby minimizing the scale of materials such as ring materials, quantity of drugs and volume of sink solutions required for release studies in case of monolithic IVRs. About 2 cm length segments were cut from the solid cross-sectional dapivirine loaded PU SC rods. The dimensions (length and diameter) and weight of each segment were recorded. […] HPLC analyses were performed every 2 to 5 days and the cumulative release was calculated by integrating the area under the curve using Kaleidagraph software (Synergy Software, Reading, Pa.). […] At the end of 30 days, the segments were wiped dry and the masses and dimensions of the segments were recorded. Similarly, dapivirine release kinetics were measured from rings (20 mg/g SC, 2.5 mg/g SC, 20 mg/g MM and 2.5 mg/g MM) incubated with 50 mL of 25:75 v/v i-prOH:water mixture as sink condition in 125 mL Erlenmeyer flasks with rubber septa […].
At the end of each release study, the swelling ratio was calculated by using the following equation […]

cumulative release over time ([1]; liposome dispersions, one week): linear relationship with time
dapivirine release in buffer controls ([1]; pH 4.2 and pH 7.6 buffers without liposomes): below the detection limit
release kinetics relative to 25:75 i-prOH:water sink (slopes of linear fits) ([1]; pH 4.2 liposome dispersion): 22 times
release kinetics relative to 25:75 i-prOH:water sink (slopes of linear fits) ([1]; pH 7.6 liposome dispersion): 1.5 times
degradation in DSC thermogram of dapivirine ([2]; 25° C. to 230° C., 10° C./min, air): no detectable degradation
degradation of dapivirine (LC/MS and NMR, heated vs non-heated) ([2]; 185° C. isothermally for 2 h under air): no detectable degradation
degradation of dapivirine in PU under extrusion conditions (DSC) ([2]; PU films loaded with 200 mg/g, ramp 25 to 230° C. and isothermal 175° C., extrusion 165 to 175° C.): no detectable degradation
dapivirine content recovered from extruded rods vs SC or MM pellets prior to extrusion ([2]; extraction, HPLC, p value>0.05, unpaired t-test): not significantly different
solubility of dapivirine in PU matrix ([2]; from absence of the 220° C. melting endotherm in DSC of PU films loaded at 200 mg/g): > 200 mg/g
release kinetics (order) ([3]; all loadings (2.5-20 mg/g), 25:75 i-prOH:water, 37° C., one month): zero order release kinetics
loaded dapivirine released ([3]; at the end of 30 days): about 20%
SMILES: Cc1cc(C)c(Nc2ccnc(Nc3ccc(C#N)cc3)n2)c(C)c1 [dapivirine, 4-[[4-[(2,4,6-trimethylphenyl)amino]pyrimidin-2-yl]amino]benzonitrile]
